From ChEMBL document CHEMBL5260810, “Inhibition of bromodomain-containing protein 9 for the prevention of epigenetically-defined drug resistance” (Bioorg Med Chem Lett, 2017) come the findings set out here.

Bromodomain and WD repeat-containing protein 1, sequence (Q9NSI6 whole entry, the tested form may be a part): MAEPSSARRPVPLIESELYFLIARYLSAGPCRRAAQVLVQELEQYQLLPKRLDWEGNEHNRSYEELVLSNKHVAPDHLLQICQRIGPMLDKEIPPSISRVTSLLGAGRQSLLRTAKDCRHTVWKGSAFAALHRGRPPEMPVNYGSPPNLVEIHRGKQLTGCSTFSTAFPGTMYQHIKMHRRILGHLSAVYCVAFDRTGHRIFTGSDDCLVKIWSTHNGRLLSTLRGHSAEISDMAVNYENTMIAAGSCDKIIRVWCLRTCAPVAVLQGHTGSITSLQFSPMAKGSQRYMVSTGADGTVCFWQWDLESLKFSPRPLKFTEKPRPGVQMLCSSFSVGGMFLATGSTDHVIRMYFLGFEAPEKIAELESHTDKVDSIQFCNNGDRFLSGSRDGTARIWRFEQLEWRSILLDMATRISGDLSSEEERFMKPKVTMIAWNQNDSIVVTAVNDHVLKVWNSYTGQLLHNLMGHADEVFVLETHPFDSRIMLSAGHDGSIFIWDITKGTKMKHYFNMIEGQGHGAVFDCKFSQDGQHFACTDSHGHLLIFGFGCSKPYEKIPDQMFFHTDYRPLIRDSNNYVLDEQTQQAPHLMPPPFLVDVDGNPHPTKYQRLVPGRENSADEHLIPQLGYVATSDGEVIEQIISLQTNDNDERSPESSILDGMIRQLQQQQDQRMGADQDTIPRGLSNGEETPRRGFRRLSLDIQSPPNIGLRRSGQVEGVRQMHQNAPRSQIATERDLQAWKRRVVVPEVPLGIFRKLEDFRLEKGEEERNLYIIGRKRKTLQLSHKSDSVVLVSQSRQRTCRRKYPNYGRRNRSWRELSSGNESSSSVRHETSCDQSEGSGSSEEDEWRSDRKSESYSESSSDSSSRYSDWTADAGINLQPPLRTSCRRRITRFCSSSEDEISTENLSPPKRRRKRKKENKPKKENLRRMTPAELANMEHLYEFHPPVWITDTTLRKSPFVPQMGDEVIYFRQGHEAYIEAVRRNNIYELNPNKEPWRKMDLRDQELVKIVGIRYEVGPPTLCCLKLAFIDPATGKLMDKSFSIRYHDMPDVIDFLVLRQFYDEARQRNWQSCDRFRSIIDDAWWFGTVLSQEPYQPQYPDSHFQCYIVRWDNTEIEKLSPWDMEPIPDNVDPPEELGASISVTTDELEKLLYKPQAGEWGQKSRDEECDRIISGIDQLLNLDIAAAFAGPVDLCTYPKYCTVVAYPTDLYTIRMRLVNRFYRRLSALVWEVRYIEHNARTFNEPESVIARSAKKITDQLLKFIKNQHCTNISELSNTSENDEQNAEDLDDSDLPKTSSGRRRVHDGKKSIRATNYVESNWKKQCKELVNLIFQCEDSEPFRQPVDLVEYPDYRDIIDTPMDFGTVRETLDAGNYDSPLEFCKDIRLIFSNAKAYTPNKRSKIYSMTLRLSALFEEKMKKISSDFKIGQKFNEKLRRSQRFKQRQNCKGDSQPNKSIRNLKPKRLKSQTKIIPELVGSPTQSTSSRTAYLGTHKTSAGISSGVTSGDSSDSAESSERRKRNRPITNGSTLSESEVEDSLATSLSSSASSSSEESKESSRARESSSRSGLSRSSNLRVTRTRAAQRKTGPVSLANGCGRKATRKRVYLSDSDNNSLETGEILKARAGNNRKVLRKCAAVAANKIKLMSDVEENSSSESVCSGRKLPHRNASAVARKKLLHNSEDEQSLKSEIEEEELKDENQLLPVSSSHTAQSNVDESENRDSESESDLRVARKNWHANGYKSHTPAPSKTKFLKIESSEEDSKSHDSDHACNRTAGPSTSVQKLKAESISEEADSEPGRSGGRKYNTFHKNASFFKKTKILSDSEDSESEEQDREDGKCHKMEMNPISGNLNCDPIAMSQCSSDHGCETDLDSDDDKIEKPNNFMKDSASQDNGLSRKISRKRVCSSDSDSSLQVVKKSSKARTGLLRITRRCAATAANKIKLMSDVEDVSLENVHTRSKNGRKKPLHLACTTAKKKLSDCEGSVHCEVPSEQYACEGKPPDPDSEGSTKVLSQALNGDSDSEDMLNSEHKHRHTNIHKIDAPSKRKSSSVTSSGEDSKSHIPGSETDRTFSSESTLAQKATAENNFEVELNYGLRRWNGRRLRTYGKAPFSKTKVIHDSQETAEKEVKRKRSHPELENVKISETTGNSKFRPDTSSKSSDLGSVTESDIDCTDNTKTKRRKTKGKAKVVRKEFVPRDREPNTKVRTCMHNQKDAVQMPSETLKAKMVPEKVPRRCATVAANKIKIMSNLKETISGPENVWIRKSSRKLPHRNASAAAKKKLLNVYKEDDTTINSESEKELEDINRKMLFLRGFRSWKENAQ

The first assay deals with Sodium-dependent serotonin transporter (Homo sapiens) (UniProt P31645). As to the kind of experiment: Displacement of [3H]-imipramine from recombinant human 5-HT transporter at 10 uM after 60 mins by scintillation counting relative to control.
Details: not given
Take `C/C=C/Cn1cc(-c2ccc(C(=O)N3CCOCC3)cc2)c2cc[nH]c2c1=O`: the Activity is 3%.

A further assay deals with MEL-JUSO. As to the kind of experiment: Cytotoxicity against human MEL-JUSO cells measured after 8 days. Particulars: 192 h. Type of assay: functional, cell-based.
In turn, `C/C=C/Cn1cc(-c2ccc(C(=O)N3CCOCC3)cc2)c2cc[nH]c2c1=O` yielded an IC50 of 20 µM.

The next assay deals with T1, Myosin light chain kinase (Homo sapiens) (UniProt Q32MK0).
T1 sequence (whole entry): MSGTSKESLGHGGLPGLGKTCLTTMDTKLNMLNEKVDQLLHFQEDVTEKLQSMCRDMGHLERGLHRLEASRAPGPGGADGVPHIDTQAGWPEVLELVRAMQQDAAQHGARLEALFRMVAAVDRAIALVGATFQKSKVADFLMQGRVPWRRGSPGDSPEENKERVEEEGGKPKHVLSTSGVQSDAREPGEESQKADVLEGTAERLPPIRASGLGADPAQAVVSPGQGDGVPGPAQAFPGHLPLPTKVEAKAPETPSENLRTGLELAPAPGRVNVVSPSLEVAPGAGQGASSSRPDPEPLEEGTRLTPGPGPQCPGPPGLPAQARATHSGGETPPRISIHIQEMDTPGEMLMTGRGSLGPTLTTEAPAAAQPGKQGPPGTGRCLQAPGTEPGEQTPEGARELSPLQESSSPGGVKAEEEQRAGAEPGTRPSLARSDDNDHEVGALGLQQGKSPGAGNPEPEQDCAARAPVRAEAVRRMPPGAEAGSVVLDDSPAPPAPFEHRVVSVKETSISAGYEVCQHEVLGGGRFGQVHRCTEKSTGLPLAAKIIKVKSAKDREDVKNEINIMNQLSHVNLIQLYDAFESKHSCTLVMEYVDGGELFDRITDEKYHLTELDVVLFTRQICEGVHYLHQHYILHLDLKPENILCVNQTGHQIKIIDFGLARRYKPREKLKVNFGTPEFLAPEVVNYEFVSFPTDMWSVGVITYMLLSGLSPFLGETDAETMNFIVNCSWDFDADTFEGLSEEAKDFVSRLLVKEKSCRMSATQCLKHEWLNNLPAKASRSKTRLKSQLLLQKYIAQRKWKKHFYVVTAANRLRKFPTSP
As to the kind of experiment: Inhibition of MYLK3 (unknown origin) at 1 uM relative to control.
Details: not given
Consider `C/C=C/Cn1cc(-c2ccc(C(=O)N3CCOCC3)cc2)c2cc[nH]c2c1=O`, for which the inhibition was 1.4%.

Tested on in the next assay: not listed separately
As to the kind of experiment: Cytotoxicity against human HS-Sultan cells measured after 8 days. The format is functional, cell-based. Particulars: 192 h.
`C/C=C/Cn1cc(-c2ccc(C(=O)N3CCOCC3)cc2)c2cc[nH]c2c1=O` registered an IC50 of 20 µM.

The test system of another assay is CAL-12T. As to the kind of experiment: Cytotoxicity against human CAL-12T cells measured after 8 days. Type of assay: functional, cell-based. Particulars: 192 h.
Take `C/C=C/Cn1cc(-c2ccc(C(=O)N3CCOCC3)cc2)c2cc[nH]c2c1=O`: the IC50 came to 20 µM.

A further assay deals with SWI/SNF-related matrix-associated actin-dependent regulator of chromatin subfamily A member 4 (Homo sapiens, UniProt P51532). As to the kind of experiment: Binding affinity to human partial length SMARCA4 (A1448 to S1575 residues) expressed in bacterial expression system by BROMOscan assay.
SWI/SNF-related matrix-associated actin-dependent regulator of chromatin subfamily A member 4, sequence (P51532 whole entry, the tested form may be a part): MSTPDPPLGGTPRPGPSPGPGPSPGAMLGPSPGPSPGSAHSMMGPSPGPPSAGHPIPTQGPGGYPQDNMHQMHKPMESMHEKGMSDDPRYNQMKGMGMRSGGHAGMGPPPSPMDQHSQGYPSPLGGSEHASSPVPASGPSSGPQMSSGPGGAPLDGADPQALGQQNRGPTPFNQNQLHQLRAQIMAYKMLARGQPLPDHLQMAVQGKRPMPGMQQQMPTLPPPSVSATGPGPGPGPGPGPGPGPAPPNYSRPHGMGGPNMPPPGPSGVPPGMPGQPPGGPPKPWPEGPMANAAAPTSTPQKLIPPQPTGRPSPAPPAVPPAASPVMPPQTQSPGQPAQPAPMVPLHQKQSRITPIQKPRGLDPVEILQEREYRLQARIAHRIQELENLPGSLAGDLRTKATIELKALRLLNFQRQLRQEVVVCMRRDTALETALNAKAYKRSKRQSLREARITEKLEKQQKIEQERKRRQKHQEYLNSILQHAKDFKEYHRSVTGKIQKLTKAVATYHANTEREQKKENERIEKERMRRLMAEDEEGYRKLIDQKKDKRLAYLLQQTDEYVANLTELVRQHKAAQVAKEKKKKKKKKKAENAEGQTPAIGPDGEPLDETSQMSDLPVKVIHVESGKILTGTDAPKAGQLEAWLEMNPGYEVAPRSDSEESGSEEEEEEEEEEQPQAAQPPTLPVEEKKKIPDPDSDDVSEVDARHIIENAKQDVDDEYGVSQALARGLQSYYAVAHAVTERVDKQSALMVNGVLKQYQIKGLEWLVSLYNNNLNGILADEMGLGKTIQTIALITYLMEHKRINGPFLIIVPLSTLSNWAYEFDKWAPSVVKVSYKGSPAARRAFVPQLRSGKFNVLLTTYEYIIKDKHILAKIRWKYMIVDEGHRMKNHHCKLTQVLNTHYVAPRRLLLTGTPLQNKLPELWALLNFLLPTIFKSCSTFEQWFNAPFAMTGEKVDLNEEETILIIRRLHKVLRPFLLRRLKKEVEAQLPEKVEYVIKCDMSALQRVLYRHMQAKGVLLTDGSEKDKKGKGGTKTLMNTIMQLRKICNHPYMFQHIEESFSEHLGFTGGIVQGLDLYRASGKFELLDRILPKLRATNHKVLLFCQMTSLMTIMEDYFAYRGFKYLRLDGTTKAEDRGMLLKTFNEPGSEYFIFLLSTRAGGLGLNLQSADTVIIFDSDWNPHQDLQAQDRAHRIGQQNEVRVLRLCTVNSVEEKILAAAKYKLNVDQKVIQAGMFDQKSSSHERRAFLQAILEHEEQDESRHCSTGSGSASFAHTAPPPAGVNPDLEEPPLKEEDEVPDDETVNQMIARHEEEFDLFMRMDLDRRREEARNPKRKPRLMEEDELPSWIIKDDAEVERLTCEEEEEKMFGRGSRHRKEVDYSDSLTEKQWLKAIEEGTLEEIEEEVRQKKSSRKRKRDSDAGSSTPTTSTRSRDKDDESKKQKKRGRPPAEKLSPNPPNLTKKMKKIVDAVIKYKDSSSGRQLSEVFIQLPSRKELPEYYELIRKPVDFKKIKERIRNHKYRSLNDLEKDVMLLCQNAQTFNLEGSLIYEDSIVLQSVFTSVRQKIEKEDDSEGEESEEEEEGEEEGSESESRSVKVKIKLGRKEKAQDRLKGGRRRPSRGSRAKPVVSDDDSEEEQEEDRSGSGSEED
Details: not given
Turning to `C/C=C/Cn1cc(-c2cc(OC)c(C(C)(C)O)cc2OC)c2cc(C)[nH]c2c1=O`, the Kd was > 10 µM.

Compound `C/C=C/Cn1cc(-c2ccc(C(=O)N3CCOCC3)cc2)c2cc[nH]c2c1=O` yielded a Kd of 28 µM.

For another assay, the target named is Mu-type opioid receptor (Homo sapiens) (UniProt P35372). As to the kind of experiment: Displacement of [3H]DAMGO from human recombinant mu receptor at 10 uM after 120 mins by scintillation counting analysis relative to control.
Details: not given
Regarding `C/C=C/Cn1cc(-c2ccc(C(=O)N3CCOCC3)cc2)c2cc[nH]c2c1=O`, the Activity is 5%.

For the next assay, the target named is 5-hydroxytryptamine receptor 2B (Homo sapiens) (UniProt P41595). As to the kind of experiment: Displacement of [125I]+/-DOI from human recombinant 5-HT2B receptor at 10 uM after 60 mins by scintillation counting analysis relative to control.
Details: not given
A general note: In a radioligand displacement assay an active substance lowers the binding of a labelled ligand.
In the case of `C/C=C/Cn1cc(-c2ccc(C(=O)N3CCOCC3)cc2)c2cc[nH]c2c1=O`, the Activity came to 22%.

A further assay addresses Bromodomain and WD repeat-containing protein 1 (Homo sapiens, UniProt Q9NSI6). As to the kind of experiment: Binding affinity to human partial length WDR9 bromodomain 2 (A1310 to E1430 residues) expressed in bacterial expression system by BROMOscan assay.
Details: not given
For `C/C=C/Cn1cc(-c2cc(OC)c(C(C)(C)O)cc2OC)c2cc(C)[nH]c2c1=O`, the Kd was > 10 µM.

With `C/C=C/Cn1cc(-c2ccc(C(=O)N3CCOCC3)cc2)c2cc[nH]c2c1=O`, the Kd came to 27 µM.

Tested on in another assay: not listed separately
As to the kind of experiment: Cytotoxicity against human NCI-H2106 cells measured after 8 days. The format is functional, cell-based. Particulars: NCI-H2106, 192 h.
As for `C/C=C/Cn1cc(-c2ccc(C(=O)N3CCOCC3)cc2)c2cc[nH]c2c1=O`, the IC50 worked out at 20 µM.

The test system of another assay is MDA-MB-157. As to the kind of experiment: Cytotoxicity against human MDA-MB-157 cells measured after 8 days. Particulars: MDA-MB-157, 192 h. Type of assay: functional, cell-based.
For the compound `C/C=C/Cn1cc(-c2ccc(C(=O)N3CCOCC3)cc2)c2cc[nH]c2c1=O`, inhibition was half-maximal at 20 µM (IC50).

In the next assay the target is T2, Myotonin-protein kinase (Homo sapiens) (UniProt Q09013).
T2 sequence (whole entry): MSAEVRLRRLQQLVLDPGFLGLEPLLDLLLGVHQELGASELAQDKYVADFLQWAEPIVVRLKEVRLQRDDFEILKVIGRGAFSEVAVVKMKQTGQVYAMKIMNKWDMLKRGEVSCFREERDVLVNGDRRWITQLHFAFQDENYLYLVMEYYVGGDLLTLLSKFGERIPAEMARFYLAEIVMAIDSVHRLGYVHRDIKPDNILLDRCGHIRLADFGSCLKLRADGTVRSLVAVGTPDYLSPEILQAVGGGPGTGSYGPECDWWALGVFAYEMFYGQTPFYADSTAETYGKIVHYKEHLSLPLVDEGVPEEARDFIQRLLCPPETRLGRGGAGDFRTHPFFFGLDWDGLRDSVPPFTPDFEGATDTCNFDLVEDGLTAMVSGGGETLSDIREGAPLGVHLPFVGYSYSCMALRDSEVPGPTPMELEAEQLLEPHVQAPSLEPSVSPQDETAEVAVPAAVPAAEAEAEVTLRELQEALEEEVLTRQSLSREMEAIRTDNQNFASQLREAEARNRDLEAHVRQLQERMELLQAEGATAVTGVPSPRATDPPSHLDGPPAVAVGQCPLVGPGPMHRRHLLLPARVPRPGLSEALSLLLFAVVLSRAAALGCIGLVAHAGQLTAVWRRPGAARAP
As to the kind of experiment: Inhibition of DMPK (unknown origin) at 1 uM relative to control.
Details: not given
In the case of `C/C=C/Cn1cc(-c2ccc(C(=O)N3CCOCC3)cc2)c2cc[nH]c2c1=O`, the inhibition is -2%.

The target of a further assay is Receptor-type tyrosine-protein kinase FLT3 (Homo sapiens) (UniProt P36888). As to the kind of experiment: Inhibition of Flt3 (unknown origin) at 1 uM relative to control.
Receptor-type tyrosine-protein kinase FLT3 (Homo sapiens), sequence (P36888 whole entry): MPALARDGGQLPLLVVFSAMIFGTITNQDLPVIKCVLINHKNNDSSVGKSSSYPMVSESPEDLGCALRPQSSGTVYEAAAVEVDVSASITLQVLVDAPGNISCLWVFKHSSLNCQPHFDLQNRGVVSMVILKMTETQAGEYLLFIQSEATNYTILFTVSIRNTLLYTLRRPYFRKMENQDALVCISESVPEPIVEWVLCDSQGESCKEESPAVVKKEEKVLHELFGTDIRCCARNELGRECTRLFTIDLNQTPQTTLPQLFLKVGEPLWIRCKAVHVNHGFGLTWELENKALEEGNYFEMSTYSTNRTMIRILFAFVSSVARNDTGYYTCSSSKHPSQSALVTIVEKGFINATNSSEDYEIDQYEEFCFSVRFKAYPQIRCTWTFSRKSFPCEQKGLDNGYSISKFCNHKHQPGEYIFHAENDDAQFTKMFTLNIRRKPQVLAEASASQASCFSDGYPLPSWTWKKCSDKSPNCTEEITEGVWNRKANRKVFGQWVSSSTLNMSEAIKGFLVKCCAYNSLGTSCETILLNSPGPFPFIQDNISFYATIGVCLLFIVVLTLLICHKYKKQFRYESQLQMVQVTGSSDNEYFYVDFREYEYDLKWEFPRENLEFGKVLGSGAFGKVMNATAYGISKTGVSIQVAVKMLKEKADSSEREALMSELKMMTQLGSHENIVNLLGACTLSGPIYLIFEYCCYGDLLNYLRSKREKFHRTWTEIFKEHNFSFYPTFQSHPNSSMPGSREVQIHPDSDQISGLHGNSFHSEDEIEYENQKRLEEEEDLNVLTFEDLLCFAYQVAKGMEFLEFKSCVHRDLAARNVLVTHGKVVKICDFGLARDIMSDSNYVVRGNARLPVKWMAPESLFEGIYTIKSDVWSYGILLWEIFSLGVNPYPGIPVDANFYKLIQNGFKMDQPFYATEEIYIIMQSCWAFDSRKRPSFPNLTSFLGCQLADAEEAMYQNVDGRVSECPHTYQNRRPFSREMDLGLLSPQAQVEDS
Details: not given
Turning to `C/C=C/Cn1cc(-c2ccc(C(=O)N3CCOCC3)cc2)c2cc[nH]c2c1=O`, the inhibition worked out at 4.4%.

The species entered for the next assay is Rattus norvegicus. As to the kind of experiment: Displacement of [3H]flunitrazepam from rat brain central BZD at 10 uM after 60 mins by radioligand binding assay relative to control.
Details: not given
For the compound `C/C=C/Cn1cc(-c2ccc(C(=O)N3CCOCC3)cc2)c2cc[nH]c2c1=O`, the Activity is 13%.

Tested on in a further assay: not listed separately
As to the kind of experiment: Cytotoxicity against human OVCAR433 cells measured after 8 days. The format is functional, cell-based. Particulars: OVCAR433, 192 h.
Take `C/C=C/Cn1cc(-c2ccc(C(=O)N3CCOCC3)cc2)c2cc[nH]c2c1=O`: the IC50 stood at 20 µM.

The test system of a further assay is NCI-H292. As to the kind of experiment: Cytotoxicity against human NCI-H292 cells measured after 8 days. Type of assay: functional, cell-based. Particulars: NCI-H292, 192 h.
As for `C/C=C/Cn1cc(-c2ccc(C(=O)N3CCOCC3)cc2)c2cc[nH]c2c1=O`, it took 20 µM to reach half-maximal inhibition (IC50).

Another assay has as its system NCI-H647. As to the kind of experiment: Cytotoxicity against human NCI-H647 cells measured after 8 days. Type of assay: functional, cell-based. Particulars: NCI-H647, 192 h.
Turning to `C/C=C/Cn1cc(-c2ccc(C(=O)N3CCOCC3)cc2)c2cc[nH]c2c1=O`, the IC50 amounted to 20 µM.

A further assay relates to ABC-1. As to the kind of experiment: Cytotoxicity against human ABC-1 cells measured after 8 days. Type of assay: functional, cell-based. Particulars: ABC-1, 192 h.
`C/C=C/Cn1cc(-c2ccc(C(=O)N3CCOCC3)cc2)c2cc[nH]c2c1=O` came in with an IC50 of 20 µM.

Another assay concerns MX1. As to the kind of experiment: Cytotoxicity against human MX1 cells measured after 8 days. The format is functional, cell-based. Particulars: MX1, 192 h.
Compound `C/C=C/Cn1cc(-c2ccc(C(=O)N3CCOCC3)cc2)c2cc[nH]c2c1=O` displayed an IC50 of 20 µM.

For the next assay, the system named is BEN. As to the kind of experiment: Cytotoxicity against human BEN cells measured after 8 days. The format is functional, cell-based. Particulars: 192 h.
In turn, `C/C=C/Cn1cc(-c2ccc(C(=O)N3CCOCC3)cc2)c2cc[nH]c2c1=O` showed an IC50 of 20 µM.

A further assay concerns NCI-H661. As to the kind of experiment: Cytotoxicity against human NCI-H661 cells measured after 8 days. Type of assay: functional, cell-based. Particulars: NCI-H661, 192 h.
Compound `C/C=C/Cn1cc(-c2ccc(C(=O)N3CCOCC3)cc2)c2cc[nH]c2c1=O` yielded an IC50 of 20 µM.

For the next assay, the system named is LS-1034. As to the kind of experiment: Cytotoxicity against human LS1034 cells measured after 8 days. Type of assay: functional, cell-based. Particulars: LS-1034, 192 h.
With `C/C=C/Cn1cc(-c2ccc(C(=O)N3CCOCC3)cc2)c2cc[nH]c2c1=O`, the IC50 is 20 µM.

In another assay the test system is NCI-H727. As to the kind of experiment: Cytotoxicity against human NCI-H727 cells measured after 8 days. The format is functional, cell-based. Particulars: NCI-H727, 192 h.
The compound `C/C=C/Cn1cc(-c2ccc(C(=O)N3CCOCC3)cc2)c2cc[nH]c2c1=O` showed an IC50 of 20 µM.

The next assay concerns NCI-H1155. As to the kind of experiment: Cytotoxicity against human NCI-H1155 cells measured after 8 days. Type of assay: functional, cell-based. Particulars: NCI-H1155, 192 h.
Regarding `C/C=C/Cn1cc(-c2ccc(C(=O)N3CCOCC3)cc2)c2cc[nH]c2c1=O`, the IC50 came to 20 µM.

Tested on in the next assay: not listed separately
As to the kind of experiment: Cytotoxicity against human OCI-M2 cells measured after 8 days. Type of assay: functional, cell-based. Particulars: OCI-M2, 192 h.
`C/C=C/Cn1cc(-c2ccc(C(=O)N3CCOCC3)cc2)c2cc[nH]c2c1=O` yielded an IC50 of 5.21 µM.

For another assay, the system named is NCI-H520. As to the kind of experiment: Cytotoxicity against human NCI-H520 cells measured after 8 days. Type of assay: functional, cell-based. Particulars: NCI-H520, 192 h.
As for `C/C=C/Cn1cc(-c2ccc(C(=O)N3CCOCC3)cc2)c2cc[nH]c2c1=O`, the IC50 was found to be 20 µM.

The test system of a further assay is MEL-HO. As to the kind of experiment: Cytotoxicity against human MEL-HO cells measured after 8 days. The format is functional, cell-based. Particulars: 192 h.
`C/C=C/Cn1cc(-c2ccc(C(=O)N3CCOCC3)cc2)c2cc[nH]c2c1=O` registered an IC50 of 20 µM.

For orientation: IC50 means the concentration that gives 50% inhibition. A higher IC50 goes with weaker potency in that assay. A word on the inhibition: it is the change of the read-out against control, counted positive when it falls. For orientation: Kd means the equilibrium constant for the complex coming apart. Read a low Kd as a tighter complex.
